Results as given in the kinase profiling compilation of Christmann-Franck et al. (2016).

What was measured:
Test in all cases: KINOMEscan competition binding
Conditions in all cases: compound 10.0 µM
[1] = tested on: ABL1 (human), P00519 [Y253F]
[2] = molecular target: ANKK1 (human) (UniProt Q8NFD2)
[3] = molecular target: AURKA (human) (UniProt O14965)
[4] = molecular target: CHEK2 (human) (UniProt O96017)
[5] = molecular target: CRK2 (P.falciparum) (UniProt P61075)
[6] = molecular target: CSF1R (human) (UniProt P07333)
[7] = molecular target: CSNK2A2 (human) (UniProt P19784)
[8] = molecular target: CaMK1 (human) (UniProt Q14012)
CaMK1 (human), sequence (Q14012 whole entry, looked up): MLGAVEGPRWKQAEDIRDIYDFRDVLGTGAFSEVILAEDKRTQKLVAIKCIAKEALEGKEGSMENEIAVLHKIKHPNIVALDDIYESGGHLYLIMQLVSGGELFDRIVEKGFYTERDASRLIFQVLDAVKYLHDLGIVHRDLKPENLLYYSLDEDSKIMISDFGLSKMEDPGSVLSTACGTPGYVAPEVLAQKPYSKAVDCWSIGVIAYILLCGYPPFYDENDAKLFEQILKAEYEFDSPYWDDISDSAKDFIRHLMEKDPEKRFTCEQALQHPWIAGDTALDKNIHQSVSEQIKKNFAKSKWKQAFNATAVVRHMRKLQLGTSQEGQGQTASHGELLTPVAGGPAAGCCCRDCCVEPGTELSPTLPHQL

[9] = molecular target: EIF2AK2 (human) (UniProt P19525)
EIF2AK2 (human), sequence (P19525 whole entry, looked up): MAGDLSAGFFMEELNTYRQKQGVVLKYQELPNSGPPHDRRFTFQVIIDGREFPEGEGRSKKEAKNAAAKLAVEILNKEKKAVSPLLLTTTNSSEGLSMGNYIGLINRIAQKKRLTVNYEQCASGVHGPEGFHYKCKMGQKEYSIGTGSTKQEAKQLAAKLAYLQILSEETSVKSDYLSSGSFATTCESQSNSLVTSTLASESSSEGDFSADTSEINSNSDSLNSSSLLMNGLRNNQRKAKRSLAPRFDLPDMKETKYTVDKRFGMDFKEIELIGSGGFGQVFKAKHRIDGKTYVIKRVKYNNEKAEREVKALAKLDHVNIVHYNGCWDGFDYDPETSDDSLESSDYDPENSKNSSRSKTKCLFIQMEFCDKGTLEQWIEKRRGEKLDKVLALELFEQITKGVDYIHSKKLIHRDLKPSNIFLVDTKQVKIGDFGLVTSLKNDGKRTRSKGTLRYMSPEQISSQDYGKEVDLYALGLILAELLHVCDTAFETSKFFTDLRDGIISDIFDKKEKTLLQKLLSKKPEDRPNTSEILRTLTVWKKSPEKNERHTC

[10] = molecular target: FGFR4 (human) (UniProt P22455)
FGFR4 (human), sequence (P22455 whole entry, looked up): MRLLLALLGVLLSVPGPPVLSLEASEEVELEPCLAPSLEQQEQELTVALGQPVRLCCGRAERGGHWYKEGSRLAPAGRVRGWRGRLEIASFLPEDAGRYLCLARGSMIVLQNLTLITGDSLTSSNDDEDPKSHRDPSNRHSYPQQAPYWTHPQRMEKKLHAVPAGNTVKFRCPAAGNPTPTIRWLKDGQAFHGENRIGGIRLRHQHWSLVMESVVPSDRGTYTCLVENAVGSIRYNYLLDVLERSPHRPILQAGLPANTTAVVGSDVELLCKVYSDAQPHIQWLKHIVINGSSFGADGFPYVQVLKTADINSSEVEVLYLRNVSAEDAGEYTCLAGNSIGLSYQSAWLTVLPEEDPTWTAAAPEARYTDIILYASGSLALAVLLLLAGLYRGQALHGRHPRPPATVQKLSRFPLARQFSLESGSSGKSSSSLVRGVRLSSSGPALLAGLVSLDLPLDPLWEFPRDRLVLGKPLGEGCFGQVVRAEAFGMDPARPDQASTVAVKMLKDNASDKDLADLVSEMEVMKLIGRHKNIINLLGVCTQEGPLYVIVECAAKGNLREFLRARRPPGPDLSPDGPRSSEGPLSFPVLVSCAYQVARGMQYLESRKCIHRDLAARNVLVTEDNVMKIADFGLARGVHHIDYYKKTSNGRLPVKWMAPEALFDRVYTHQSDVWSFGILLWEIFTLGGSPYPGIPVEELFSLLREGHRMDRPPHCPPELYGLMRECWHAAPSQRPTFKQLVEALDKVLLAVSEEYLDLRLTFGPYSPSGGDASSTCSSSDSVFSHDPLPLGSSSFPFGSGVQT

[11] = molecular target: GAK (human) (UniProt O14976)
[12] = molecular target: GRK1 (human) (UniProt Q15835)
[13] = molecular target: GSK3B (human) (UniProt P49841)
[14] = molecular target: IRAK1 (human) (UniProt P51617)
[15] = molecular target: KIT (human) (UniProt P10721)
KIT (human), sequence (P10721 whole entry, looked up): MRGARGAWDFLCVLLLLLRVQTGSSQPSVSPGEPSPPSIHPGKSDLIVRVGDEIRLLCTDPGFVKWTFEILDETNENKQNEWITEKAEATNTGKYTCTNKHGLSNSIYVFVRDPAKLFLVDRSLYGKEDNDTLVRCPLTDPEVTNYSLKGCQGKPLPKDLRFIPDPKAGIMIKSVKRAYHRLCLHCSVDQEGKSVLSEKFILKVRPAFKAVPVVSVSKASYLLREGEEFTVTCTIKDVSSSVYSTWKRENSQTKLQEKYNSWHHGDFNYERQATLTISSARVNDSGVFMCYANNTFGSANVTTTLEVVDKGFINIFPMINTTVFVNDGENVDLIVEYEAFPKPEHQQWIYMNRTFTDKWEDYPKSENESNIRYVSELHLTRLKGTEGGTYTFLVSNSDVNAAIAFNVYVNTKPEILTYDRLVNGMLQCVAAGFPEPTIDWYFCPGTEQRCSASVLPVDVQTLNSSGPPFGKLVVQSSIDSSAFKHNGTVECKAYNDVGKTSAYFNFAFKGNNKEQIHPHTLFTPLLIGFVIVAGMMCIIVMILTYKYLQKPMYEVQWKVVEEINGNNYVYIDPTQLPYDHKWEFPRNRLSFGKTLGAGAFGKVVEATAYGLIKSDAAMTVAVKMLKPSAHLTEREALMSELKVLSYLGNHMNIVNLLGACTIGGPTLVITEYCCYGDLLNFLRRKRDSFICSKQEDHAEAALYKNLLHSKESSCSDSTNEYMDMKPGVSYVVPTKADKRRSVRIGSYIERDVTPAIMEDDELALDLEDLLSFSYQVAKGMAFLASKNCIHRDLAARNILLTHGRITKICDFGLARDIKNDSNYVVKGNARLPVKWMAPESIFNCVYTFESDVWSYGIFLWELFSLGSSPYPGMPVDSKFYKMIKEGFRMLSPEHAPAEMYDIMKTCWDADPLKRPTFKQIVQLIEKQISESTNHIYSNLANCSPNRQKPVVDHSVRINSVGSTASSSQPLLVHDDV

[16] = molecular target: MAP2K1 (human) (UniProt Q02750)
[17] = molecular target: MAP2K7 (human) (UniProt O14733)
[18] = molecular target: MAP3K10 (human) (UniProt Q02779)
[19] = molecular target: MAP3K15 (human) (UniProt Q6ZN16)
[20] = molecular target: MAP4K3 (human) (UniProt Q8IVH8)
[21] = molecular target: MAPKAPK2 (human) (UniProt P49137)
MAPKAPK2 (human), sequence (P49137 whole entry, looked up): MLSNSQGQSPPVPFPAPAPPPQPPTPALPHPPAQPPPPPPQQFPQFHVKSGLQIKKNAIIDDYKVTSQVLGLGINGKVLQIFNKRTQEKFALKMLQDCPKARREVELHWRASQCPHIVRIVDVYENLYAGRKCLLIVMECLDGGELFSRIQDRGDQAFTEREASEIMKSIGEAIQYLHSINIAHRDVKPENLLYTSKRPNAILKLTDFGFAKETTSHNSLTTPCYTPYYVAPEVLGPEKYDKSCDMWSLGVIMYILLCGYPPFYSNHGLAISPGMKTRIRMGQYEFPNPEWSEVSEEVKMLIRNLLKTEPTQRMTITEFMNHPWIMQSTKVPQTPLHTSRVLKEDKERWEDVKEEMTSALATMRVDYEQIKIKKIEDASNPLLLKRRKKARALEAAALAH

[22] = molecular target: MATK (human) (UniProt P42679)
[23] = molecular target: MERTK (human) (UniProt Q12866)
[24] = molecular target: MYLK2 (human) (UniProt Q9H1R3)
[25] = molecular target: PAK1 (human) (UniProt Q13153)
[26] = molecular target: PIK3CG (human) (UniProt P48736)
[27] = molecular target: PIP5K1C (human) (UniProt O60331)
PIP5K1C (human), sequence (O60331 whole entry, looked up): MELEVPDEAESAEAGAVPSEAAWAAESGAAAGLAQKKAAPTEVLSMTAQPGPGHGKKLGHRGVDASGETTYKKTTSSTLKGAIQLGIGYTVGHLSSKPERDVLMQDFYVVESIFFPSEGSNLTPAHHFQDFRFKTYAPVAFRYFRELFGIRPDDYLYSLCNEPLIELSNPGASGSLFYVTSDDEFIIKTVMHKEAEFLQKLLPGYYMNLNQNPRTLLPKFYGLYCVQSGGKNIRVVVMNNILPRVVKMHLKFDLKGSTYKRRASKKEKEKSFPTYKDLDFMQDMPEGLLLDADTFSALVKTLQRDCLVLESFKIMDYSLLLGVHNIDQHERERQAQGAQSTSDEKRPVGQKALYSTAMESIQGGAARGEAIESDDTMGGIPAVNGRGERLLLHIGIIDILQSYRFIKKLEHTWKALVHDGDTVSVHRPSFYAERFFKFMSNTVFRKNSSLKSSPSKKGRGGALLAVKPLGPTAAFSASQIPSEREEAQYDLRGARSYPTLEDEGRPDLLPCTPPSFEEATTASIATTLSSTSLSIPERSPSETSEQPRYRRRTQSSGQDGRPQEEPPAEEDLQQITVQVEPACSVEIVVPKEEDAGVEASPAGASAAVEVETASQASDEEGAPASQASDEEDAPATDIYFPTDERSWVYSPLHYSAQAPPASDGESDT

[28] = molecular target: PLK2 (human) (UniProt Q9NYY3)
[29] = molecular target: PRKCI (human) (UniProt P41743)
[30] = molecular target: ROCK1 (human) (UniProt Q13464)
[31] = molecular target: RPS6KA1 KD2 (human) (UniProt Q15418)
[32] = molecular target: RPS6KA4 KD2 (human) (UniProt O75676)
[33] = molecular target: SIK1 (human) (UniProt P57059)
[34] = molecular target: SRC (human) (UniProt P12931)
[35] = molecular target: STK17A (human) (UniProt Q9UEE5)
[36] = molecular target: STK17B (human) (UniProt O94768)
[37] = molecular target: STK24 (human) (UniProt Q9Y6E0)
[38] = molecular target: SYK (human) (UniProt P43405)
[39] = molecular target: ULK3 (human) (UniProt Q6PHR2)
[40] = molecular target: YES1 (human) (UniProt P07947)

CHEK2 (human), sequence (O96017 whole entry, looked up): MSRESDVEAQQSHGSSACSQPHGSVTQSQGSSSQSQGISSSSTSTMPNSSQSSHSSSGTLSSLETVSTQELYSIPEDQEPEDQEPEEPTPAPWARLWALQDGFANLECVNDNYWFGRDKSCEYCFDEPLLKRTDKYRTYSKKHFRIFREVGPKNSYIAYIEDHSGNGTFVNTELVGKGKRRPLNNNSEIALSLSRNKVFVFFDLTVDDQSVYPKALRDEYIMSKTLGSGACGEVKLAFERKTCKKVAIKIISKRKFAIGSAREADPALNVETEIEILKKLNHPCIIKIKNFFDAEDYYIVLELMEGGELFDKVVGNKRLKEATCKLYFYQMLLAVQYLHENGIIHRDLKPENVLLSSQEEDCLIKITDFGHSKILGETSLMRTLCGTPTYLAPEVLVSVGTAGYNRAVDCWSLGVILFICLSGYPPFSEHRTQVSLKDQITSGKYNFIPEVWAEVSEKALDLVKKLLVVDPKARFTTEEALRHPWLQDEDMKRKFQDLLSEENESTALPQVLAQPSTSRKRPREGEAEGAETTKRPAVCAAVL
AURKA (human), sequence (O14965 whole entry, looked up): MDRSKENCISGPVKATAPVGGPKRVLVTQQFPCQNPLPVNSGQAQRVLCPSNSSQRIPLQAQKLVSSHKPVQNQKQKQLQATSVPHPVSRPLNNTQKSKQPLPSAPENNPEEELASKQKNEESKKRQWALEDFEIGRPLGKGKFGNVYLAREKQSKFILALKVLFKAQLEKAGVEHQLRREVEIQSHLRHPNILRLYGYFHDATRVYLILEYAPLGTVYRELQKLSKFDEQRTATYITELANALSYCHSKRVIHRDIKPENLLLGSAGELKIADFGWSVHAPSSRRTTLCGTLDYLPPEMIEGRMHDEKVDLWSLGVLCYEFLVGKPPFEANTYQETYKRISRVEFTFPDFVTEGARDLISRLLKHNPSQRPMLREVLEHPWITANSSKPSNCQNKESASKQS
CRK2 (P.falciparum), sequence (P61075 whole entry, looked up): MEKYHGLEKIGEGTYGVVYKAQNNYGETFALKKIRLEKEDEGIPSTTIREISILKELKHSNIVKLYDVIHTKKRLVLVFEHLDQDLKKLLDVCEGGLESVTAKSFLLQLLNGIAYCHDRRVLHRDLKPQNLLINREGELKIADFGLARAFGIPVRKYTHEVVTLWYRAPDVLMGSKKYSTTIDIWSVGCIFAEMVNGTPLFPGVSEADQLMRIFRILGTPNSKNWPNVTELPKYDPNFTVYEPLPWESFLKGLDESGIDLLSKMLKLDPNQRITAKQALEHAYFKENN

Compound: O=C(Nc1cccc(Nc2ncc(Br)c(NCCc3cnc[nH]3)n2)c1)N1CCCC1
- kinase still bound, per cent of control [1]: 0.1%
- kinase still bound, per cent of control [2]: 4.3%
- kinase still bound, per cent of control [3]: 1.6%
- kinase still bound, per cent of control [4]: 24%
- kinase still bound, per cent of control [5]: 100%
- kinase still bound, per cent of control [6]: 1.4%
- kinase still bound, per cent of control [7]: 0%
- kinase still bound, per cent of control [8]: 11%
- kinase still bound, per cent of control [9]: 31%
- kinase still bound, per cent of control [10]: 1.8%
- kinase still bound, per cent of control [11]: 1.4%
- kinase still bound, per cent of control [12]: 47%
- kinase still bound, per cent of control [13]: 44%
- kinase still bound, per cent of control [14]: 0.25%
- kinase still bound, per cent of control [15]: 0.15%
- kinase still bound, per cent of control [16]: 0.15%
- kinase still bound, per cent of control [17]: 60%
- kinase still bound, per cent of control [18]: 0%
- kinase still bound, per cent of control [19]: 50%
- kinase still bound, per cent of control [20]: 4.6%
- kinase still bound, per cent of control [21]: 100%
- kinase still bound, per cent of control [22]: 40%
- kinase still bound, per cent of control [23]: 0.5%
- kinase still bound, per cent of control [24]: 0.35%
- kinase still bound, per cent of control [25]: 36%
- kinase still bound, per cent of control [26]: 58%
- kinase still bound, per cent of control [27]: 22%
- kinase still bound, per cent of control [28]: 11%
- kinase still bound, per cent of control [29]: 45%
- kinase still bound, per cent of control [30]: 0.6%
- kinase still bound, per cent of control [31]: 13%
- kinase still bound, per cent of control [32]: 0.95%
- kinase still bound, per cent of control [33]: 0.35%
- kinase still bound, per cent of control [34]: 4%
- kinase still bound, per cent of control [35]: 0.2%
- kinase still bound, per cent of control [36]: 2.4%
- kinase still bound, per cent of control [37]: 2%
- kinase still bound, per cent of control [38]: 0.95%
- kinase still bound, per cent of control [39]: 0.1%
- kinase still bound, per cent of control [40]: 31%
